Data on 21 compounds can be found in publication PMC2693028 (ChemMedChem, 2008).

In brackets after ≈: the same amount, converted by molar mass. Several values for one entry are separate records, joined by “and”; a condition that tells them apart may be missing. Identical values can stand only once.

Broadly, the % inhibition is the percentage by which the read-out fell short of the control. Read a low % inhibition as a response near the control. Usually IC50 stands for the midpoint of a concentration-inhibition curve. Broadly, the inhibition is the relative decrease from the control value, in per cent.

For one experiment, the target named is Enoyl reducase (ENR) from Bacillus anthracis (BaENR) (Bacillus anthracis, UniProt A0A6L8PBX8). In words: biochemical.
Enoyl reducase (ENR) from Bacillus anthracis (BaENR), sequence (A0A6L8PBX8 1-256): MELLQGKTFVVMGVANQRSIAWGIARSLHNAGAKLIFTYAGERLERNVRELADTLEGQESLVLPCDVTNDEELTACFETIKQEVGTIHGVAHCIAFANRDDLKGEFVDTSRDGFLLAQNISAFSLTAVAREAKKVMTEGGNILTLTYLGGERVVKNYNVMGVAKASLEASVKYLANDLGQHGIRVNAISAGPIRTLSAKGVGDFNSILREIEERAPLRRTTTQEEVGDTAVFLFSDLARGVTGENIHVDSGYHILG
Details: not given
Regarding “3-[3-(2-Hydroxy-4-propylphenoxy)phenyl]propionic acid [Compound 50]”, the “% inhibition at 1μM” value is reported as 17.9%. Take `CCCc1ccc(Oc2cccc(CCO)c2)c(O)c1` [Compound 13, 2-[3-(2-Hydroxy-ethyl)phenoxy]-5-propylphenol]: inhibition was half-maximal at 6 ± 1.5 µM (IC50).

The experiment is the same for the next values; noted with them: IC50.
Regarding `Oc1ccc(Oc2ccccc2)c(O)c1` [Compound 1, 4-Phenoxybenzene-1,3-diol], 6.3 ± 0.4 µM corresponded to half-maximal inhibition (IC50).

For `O=[N+]([O-])c1ccc(Oc2ccccc2)c(O)c1` [Compound 2, 5-Nitro-2-phenoxyphenol], the 50% inhibitory concentration (IC50) is above 50 µM. `O=[N+]([O-])c1ccccc1Oc1ccc(Cl)cc1O` [Compound 5, 5-Chloro-2-(2-nitrophenoxy)phenol] gave an IC50 of 7.7 ± 0.7 µM. Still for that read-out and setting: for `Oc1cc(Cl)ccc1Oc1ccc(-c2ccccc2)cc1` [Compound 7, 2-(Biphenyl-4-yloxy)-5-chlorophenol] the value was above 6.25 µM. `CCCc1ccc(Oc2ccc([N+](=O)[O-])cc2)c(O)c1` [Compound 8, 2-(4-Nitrophenoxy)-5-propylphenol] returned an IC50 of 1.1 ± 0.1 µM.

In turn, `CCCc1ccc(Oc2cccc([N+](=O)[O-])c2)c(O)c1` [Compound 9, 2-(3-Nitrophenoxy)-5-propylphenol] yielded an IC50 above 0.8 µM. The compound `CCCc1ccc(Oc2ccc([N+](=O)[O-])cc2[N+](=O)[O-])c(O)c1` [Compound 10, 2-(2,4-Dinitrophenoxy)-5-propylphenol] returned an IC50 of 3.6 ± 0.8 µM.

In turn, `CCCc1ccc(Oc2ccc(C#N)cc2Cl)c(O)c1` [Compound 12, 3-Chloro-4-(2-hydroxy-4-propylphenoxy)benzonitrile] had a half-inhibitory concentration (IC50) above 0.8 µM. Turning to `CCCc1ccc(Oc2ccc(C(N)=O)cc2Cl)c(O)c1` [Compound 15, 3-Chloro-4-(2-hydroxy-4-propylphenoxy)benzamide], 1.1 ± 0.1 µM corresponded to half-maximal inhibition (IC50). With `Nc1ccc(Oc2ccc(Cl)cc2O)cc1` [Compound 20, 2-(4-Aminophenoxy)-5-chlorophenol], the IC50 is 7 µM and 7.1 µM. In the case of `CCCc1ccc(Oc2ccc(N)cc2)c(O)c1` [Compound 21, 2-(4-Aminophenoxy)-5-propylphenol], the half-maximal inhibitory concentration (IC50) was determined as 8.8 ± 1 µM.

The same experiment, now with this note: read-out: % inhibition at 1μM.
For `Oc1ccc(Oc2ccc(Cl)cc2O)cc1` [Compound 3, 5-Chloro-2-(4-hydroxyphenoxy)phenol], the inhibition at 1 µM came to 2.6%. As to `O=C(O)c1cc(Cl)ccc1Oc1ccccc1` [Compound 14, 5-Chloro-2-phenoxybenzoic acid], the inhibition at 1 µM was 0%. On to `OCc1cc(Cl)ccc1Oc1ccccc1` [Compound 16, 5-Chloro-2-phenoxyphenylmethanol], for which the inhibition at 1 µM turned out to be 1.8%. Take `NC(=O)c1cc(Cl)ccc1Oc1ccccc1` [Compound 17, 5-Chloro-2-phenoxybenzamide]: the inhibition at 1 µM worked out at 0%. On to `CC(=O)Nc1ccc(Oc2ccc(Cl)cc2O)cc1` [Compound 18, N-[4-(4-Chloro-2-hydroxy-phenoxy)phenyl]acetamide], for which the inhibition at 1 µM was found to be 1.6%.

`CC(=O)Nc1ccccc1Oc1ccc(Cl)cc1O` [Compound 19, N-[2-(4-Chloro-2-hydroxy-phenoxy)phenyl]acetamide]: the inhibition at 1 µM was 0%. As for `Clc1ccc(Oc2ccc(Cl)cc2Oc2cccnc2)c(Cl)c1` [Compound 52, 3-[5-Chloro-2-(2,4-dichlorophenoxy)phenoxy]pyridine], the inhibition at 1 µM is 0.5%.

The test system of the next experiment is ΔANR B. anthracis. Description: microbe, parasite or virus in culture. It counts as cell-based, Bacillus anthracis.
Details: not given
“3-[3-(2-Hydroxy-4-propylphenoxy)phenyl]propionic acid [Compound 50]” displayed an MIC of 14.9 µg/mL.

Still in this experiment, the particulars now being: Bacillus anthracis.
In turn, `Oc1ccc(Oc2ccccc2)c(O)c1` [Compound 1, 4-Phenoxybenzene-1,3-diol] gave an MIC of 64 µg/mL (≈ 317 µM). `O=[N+]([O-])c1ccc(Oc2ccccc2)c(O)c1` [Compound 2, 5-Nitro-2-phenoxyphenol] registered an MIC of 5.8 µg/mL (≈ 25.1 µM). Same read-out and setting: for `Oc1ccc(Oc2ccc(Cl)cc2O)cc1` [Compound 3, 5-Chloro-2-(4-hydroxyphenoxy)phenol] the value was above 64 µg/mL.

The compound `O=[N+]([O-])c1ccc(Oc2ccc(Cl)cc2O)cc1` [Compound 4, 5-Chloro-2-(4-nitrophenoxy)phenol] yielded an MIC of 3.3 µg/mL (≈ 12.4 µM). In the case of `O=[N+]([O-])c1ccccc1Oc1ccc(Cl)cc1O` [Compound 5, 5-Chloro-2-(2-nitrophenoxy)phenol], the MIC was determined as 13.3 µg/mL (≈ 50.1 µM). Consider `Oc1cc(Cl)ccc1Oc1ccc(-c2ccccc2)cc1` [Compound 7, 2-(Biphenyl-4-yloxy)-5-chlorophenol], for which the MIC was determined as 1.9 µg/mL (≈ 6.4 µM). The same measure, in the same setting: for `CCCc1ccc(Oc2ccc([N+](=O)[O-])cc2)c(O)c1` [Compound 8, 2-(4-Nitrophenoxy)-5-propylphenol] the value was 3.4 µg/mL (≈ 12.4 µM); for `CCCc1ccc(Oc2cccc([N+](=O)[O-])c2)c(O)c1` [Compound 9, 2-(3-Nitrophenoxy)-5-propylphenol], 1.7 µg/mL (≈ 6.22 µM); for `CCCc1ccc(Oc2ccc([N+](=O)[O-])cc2[N+](=O)[O-])c(O)c1` [Compound 10, 2-(2,4-Dinitrophenoxy)-5-propylphenol], 4 µg/mL (≈ 12.6 µM).

`CCCc1ccc(Oc2ccc(C#N)cc2Cl)c(O)c1` [Compound 12, 3-Chloro-4-(2-hydroxy-4-propylphenoxy)benzonitrile] had an MIC of 1.8 µg/mL (≈ 6.26 µM). Same read-out and setting: for `CCCc1ccc(Oc2cccc(CCO)c2)c(O)c1` [Compound 13, 2-[3-(2-Hydroxy-ethyl)phenoxy]-5-propylphenol] the value was 1.7 µg/mL (≈ 6.24 µM); for `CCCc1ccc(Oc2ccc(C(N)=O)cc2Cl)c(O)c1` [Compound 15, 3-Chloro-4-(2-hydroxy-4-propylphenoxy)benzamide], 30.6 µg/mL (≈ 100 µM). The compound `CC(=O)Nc1ccc(Oc2ccc(Cl)cc2O)cc1` [Compound 18, N-[4-(4-Chloro-2-hydroxy-phenoxy)phenyl]acetamide] gave an MIC of 111 µg/mL (≈ 400 µM).

In the case of `CC(=O)Nc1ccccc1Oc1ccc(Cl)cc1O` [Compound 19, N-[2-(4-Chloro-2-hydroxy-phenoxy)phenyl]acetamide], the MIC was 111 µg/mL (≈ 400 µM).

`Nc1ccc(Oc2ccc(Cl)cc2O)cc1` [Compound 20, 2-(4-Aminophenoxy)-5-chlorophenol]: the MIC was found to be 12 µg/mL (≈ 50.9 µM). Still for that read-out and setting: for `CCCc1ccc(Oc2ccc(N)cc2)c(O)c1` [Compound 21, 2-(4-Aminophenoxy)-5-propylphenol] the value was above 97 µg/mL.
